Columns and labels:
[1] = tested on: adalimumab producing cell line 2; assay: Lys-C peptide mapping for MGO modification of adalimumab, shake flask culture, cell line 2; format: cell-based; details: Example 5; day 11 harvest; control 1.93%
Method: For shake flask experiments (Example 4), duplicate 500 mL Corning vented non-baffled shake flasks (200 mL working volume) were used for each condition. Similar to the seed train stage, the production stage shake flasks were kept in incubators maintained at 36° C. and 5% CO2 on shaker platforms that were set at 140 rpm.
Typical trypsin digestion for peptide mapping cleaves a denatured, reduced and alkylated protein at the carboxyl side of the two basic amino acids, lysine and arginine. Methylglyoxal (MGO) is a small molecule metabolite derived as a glycolysis byproduct which can modify arginine residues. […] The challenge of quantifying the amount of MGO modified peptide is that, it is not compared to an equivalent non-modified peptide but rather to two parental cleaved peptides. […] In order to determine a truly accurate direct measurement of an MGO-modified peptide, it is compared to its non-modified counterpart and expressed as a percentage. […] The result is a direct comparison of the same peptide with and without an MGO modification, which provides a high degree of accuracy in quantifying even trace levels of the modified species.
Procedure: Samples were dilated to a nominal concentration of 4 mg/mL. […] Samples were analyzed by LC/MS peptide mapping. […] Eluting peaks were monitored using a Thermo Scientific LTQ-Orbitrap Mass Spectrometer. […]

[2] = tested on: adalimumab producing cell line 1; assay: Glucose consumption of the culture, cell line 1; format: cell-based; details: Example 3; arginine supplementation 4 g/l
Method: For the bioreactor (3 L Applikon) experiments (Examples 1, 2 and 3), 3 L, bioreactors (1.5 L working volume) were initiated at 35° C. (cell line 1) and 36° C. (cell line 2), 30% DO, 200 rpm, pH of 7.1. In some of the conditions, pH was ramped down to 6.8 in three days and kept at pH 6.8 thereafter. The inclusion of pH ramp for a particular condition is indicated by the final pH in the experimental design. If the final pH is 7.1, then it indicates no pH ramp was performed, whereas if the final pH is 6.8, a pH ramp was performed on day 3 from pH 7.1 to pH 6.8. In some of the conditions, a temperature shift was performed. When temperature shift was performed, the temperature was lowered to 33° C. Again, the conditions where such a temperature shift was performed can be identified from the final temperature in the experimental design. Cultures were run in extended batch mode with the addition of a desired amount of 40% glucose stock solution was fed based on glucose measurements.
To assess if this reduction in MGO modification in the test conditions also corresponded to lower glucose consumption, the specific glucose consumption rate was calculated across the two phases of culture: average over day 0-day 5 and average over day 5-10 (period post temperature shift) (FIG. 4b). The specific glucose consumption rate in the conditions with 2DDG supplementation was lower in both phases. […] In the period post the temperature shift, up to 50% reduction in specific glucose consumption rate relative to that in the control was observed. Thus, a clear correlation has been observed between reduced glucose consumption and the extent of MGO modification of the peptides.
To further assess the applicability of this strategy, the cumulative glucose consumption levels were also evaluated for these conditions in this study (FIG. 6b). This was calculated by using daily glucose concentration measurements via the offline analyzer and by accounting for glucose feeds when added. […]

Structure (SMILES)	MGO modification (total) [1] [%]	glucose consumption [2]
N[C@@H](CO)C(=O)O [Test 1, Serine]	0.68	–
N=C(N)NCCC[C@H](N)C(=O)O [arginine, Arginine]	–	no additional reduction

Source: patent publication US20160115225A1, “Methods of Reducing Methylglyoxal (MGO) Modification of Recombinant Proteins in Cell Culture” (AbbVie Inc., priority 2014, published 2016)
